The experiment concerns the target KCNQ2/KCNQ3 potassium channel current expressed in mammalian cells (Homo sapiens, UniProt O43525+O43526). The experiment in a line: KCNQ2/KCNQ3 current enhancement, automated parallel patch-clamp (PatchXpress 7000A). The conditions noted are these: mean±s.e.m. Format: cell-based. As to the method:
The objective of this study was to examine the in vitro effects of the Example compounds on the KCNQ2/KCNQ3 potassium channel current expressed in mammalian cells using the PatchXpress 7000A (Molecular Devices), an automatic parallel patch-clamp system. The test compounds were evaluated at 30 or 10 μM (n≦2). The duration of exposure to the test compound was 5 minutes. […] The results for a positive control, flupirtine (Table 2) applied to naïve cells in the same study confirm the sensitivity of the test system to detect KCNQ2/KCNQ3 current enhancement.
All experiments were performed at ambient temperature. Each cell acted as its own control.
A 30 μM or 10 μM concentration of test compound was applied via disposable polyethylene micropipette tips to naïve cells. Each solution exchange, performed in quadruplicate, consisted of aspiration and replacement of 45 μL of the total 50 μL volume of the extracellular well of the Sea/chip16.
Vehicle was applied to naïve cells (n≦2), for a 5 minute exposure interval.
Each solution exchange, performed in quadruplicate, consisted of aspiration and replacement of 45 μL of the total 50 μL volume of the extracellular well of the Sea/chip16. After vehicle application, the positive control was applied in the same manner, to verify sensitivity of the assay.
In preparation for a recording session, intracellular solution was loaded into the intracellular compartments of the Sea/chip16 planar electrode. Cell suspension was pipetted into the extracellular compartments of the Sea/chip16 planar electrode. After establishment of the whole-cell configuration, membrane currents were recorded using dual-channel patch-clamp amplifiers in the PatchXpress® system. Before digitization, the current records were low-pass filtered at one-fifth of the sampling frequency.
Data acquisition and analysis were performed using the pCLAMP suite of programs (Axon Instruments, Union City, Calif.). The steady-state current before and after test article application was used to calculate the percentage current enhancement at each concentration. The results obtained from different cells were averaged and presented as mean±s.e.m (see Tables 1 and 2).
In general terms: Patch clamp records ionic current or voltage across a cell membrane.

[1] abbreviates: 30 μM test compound, 5 minutes exposure, ambient temperature.

The structures appear in SMILES notation.

Regarding `O=S(=O)(Cc1ccccc1Nc1c(Cl)cccc1Cl)NCCOCCO` [Example 1, 1-[2-(2,6-Dichlorophenylamino)phenyl]-N-[2-(2-hydroxyethoxy)ethyl]-methanesulfonamide], the “Mean % Enhancement of KCNQ2/KCNQ3” value under setting [1] is on record as 32.4 ± 18%.
The same measure, in the same setting: in the case of `O=S(=O)(NCCO)c1ccccc1Nc1c(Cl)cc(Cl)cc1Cl` [Example 8, N-(2-Hydroxyethyl)-2-(2,4,6-trichlorophenylamino)-benzenesulfonamide] it was 41.2 ± 9%.
Consider `O=S(=O)(NCCO)c1ccccc1Nc1c(Cl)cccc1Cl` [Example 9, N-(2-Hydroxyethyl)-2-(2,6-dichlorophenylamino)-benzenesulfonamide], for which the “Mean % Enhancement of KCNQ2/KCNQ3” value under setting [1] is 56.8 ± 9%.
As to `O=S(=O)(NCCO)c1cccc(Nc2c(Cl)cc(Cl)cc2Cl)c1` [Example 16, N-(2-Hydroxyethyl)-3-(2,4,6-trichlorophenylamino)-benzenesulfonamide], the “Mean % Enhancement of KCNQ2/KCNQ3” value under setting [1] is on record as 87.4 ± 14%.
`O=S(=O)(NCCO)c1cc(Nc2c(Cl)cc(Cl)cc2Cl)ccc1Cl` [Example 18, 2-Chloro-N-(2-hydroxyethyl)-5-(2,4,6-trichlorophenylamino)benzensulfonamide]: where the note is “10 μM test compound, 5 minutes exposure, ambient temperature”, the “Mean % Enhancement of KCNQ2/KCNQ3” value turned out to be 18.6 ± 4%.
Take `CCOC(=O)Nc1ccc(NCc2ccc(F)cc2)nc1N` [Flupirtine, flupirtine, reference compound]: the “Mean % Enhancement of KCNQ2/KCNQ3” value (positive control, 10 μM, applied after vehicle to naïve cells) turned out to be 127 ± 16%.

(Values after patent US8466201B2, “Potassium ion channel modulators and uses thereof” (Ramot at Tel-Aviv University ltd., priority 2007, dated 2013).)
